This test deals with sturgeon suspension cells. Kind of test: Proliferation of sturgeon suspension cells treated with epigenetic modifiers (cell counts, Neubauer chamber). The settings on record: exposed once per week.

From US20240327786A1, “NON-MAMMALIAN AQUATIC ANIMAL CELLS AND EXTRACTS” (Shah Caviar Limited, priority 2021, published 2024) come the findings set out here.

On to `CCCC(=O)O` [butyric acid], for which the “proliferation compared to the standard culture” value is “increase in proliferation”. The expansion factor (within 4 weeks, 1 μM, 10 μM, 50 μM, 100 μM and 500 μM) is listed as 16.
Take `CCCC(CCC)C(=O)O` [valproic acid]: the “proliferation compared to the standard culture” value is reported as “increase in proliferation”. Besides, for the setting “within 6 weeks, 30 μM, 100 μM, 300 μM, 1 mM and 3 mM”, the expansion factor turned out to be 8.
